Data on seven compounds can be found in PubChem BioAssay (NCI).

Each structure is given as a SMILES string.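 Cultured in 96-well plates, cells were exposed to test compound for 48 hours across five concentrations. GI50 = concentration required for 50% inhibition of growth. The concentration for full growth arrest is given as TGI.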 Where only a bound is given, the exact number is not on record here.

Test systems include 786-0 renal; COLO 205 colon; HCT-15 colon; HS 578T breast; HT29 colon; K-562 leukemia; M14 melanoma; SK-OV-3 ovarian; SN12C renal; SNB-75 CNS.
Assay in all cases: NCI-60 cell line screen, 48 h

As to `COc1ccc(C2=C(c3ccccc3)C(=O)N3CCCC3C2)cc1` (stereo not given), the GI50 with 786-0 renal is 1.13 µM; with COLO 205 colon it was 0.241 µM; with HCT-15 colon, below 0.0249 µM; with HS 578T breast it was above 100 µM; in the experiment with HT29 colon, 0.233 µM; in the experiment with K-562 leukemia, 0.0893 µM. Moreover, the GI50 is 9.54 µM in the experiment on M14 melanoma, above 100 µM in the experiment with SK-OV-3 ovarian, 13 µM with SN12C renal and 18.9 µM in the experiment with SNB-75 CNS. Moreover, the TGI in the experiment on 786-0 renal, with COLO 205 colon, with HCT-15 colon, in the experiment on HS 578T breast, in the experiment on HT29 colon and in the experiment on K-562 leukemia was above 100 µM in each case. Also, the TGI in the experiment on M14 melanoma, with SK-OV-3 ovarian, with SN12C renal and in the experiment on SNB-75 CNS was above 100 µM in each case.
Regarding `COc1cc(/C=C2\CC3C4CCC5=CC(=O)CC[C@]5(C)C4CC[C@]3(C)C2=O)ccc1OCCN1CCCC1` (stereo not given in full), the GI50 was 1.22 µM with 786-0 renal; 2.04 µM in the experiment on COLO 205 colon; 2.76 µM in the experiment with HCT-15 colon; 3.22 µM in the experiment on HS 578T breast; 2.5 µM with HT29 colon; 0.489 µM with K-562 leukemia. Also, the GI50 is 1.67 µM in the experiment with M14 melanoma, 4.56 µM in the experiment on SK-OV-3 ovarian, 3.28 µM with SN12C renal and 3.47 µM in the experiment with SNB-75 CNS. Also, the TGI in the experiment on 786-0 renal was 2.91 µM; in the experiment on COLO 205 colon it was 4.91 µM; in the experiment on HCT-15 colon it was 10.7 µM; in the experiment with HS 578T breast, 8.87 µM; with HT29 colon, above 28.5 µM; in the experiment on K-562 leukemia, 1.53 µM. Also, the TGI in the experiment with M14 melanoma was determined as 3.39 µM; with SK-OV-3 ovarian it was 16.8 µM; in the experiment with SN12C renal, 9.18 µM; in the experiment with SNB-75 CNS, 11.1 µM.
With `CC(C)[C@@]12C[C@@H](OC(=O)COC(=O)c3ccccc3)[C@@](C)(O1)[C@@H]1CC[C@@H](C)[C@H]1[C@@H]2OC(=O)/C=C/c1ccccc1`, the GI50 in the experiment with 786-0 renal was 3.95 µM; with COLO 205 colon it was above 100 µM; in the experiment with HCT-15 colon, above 89 µM; in the experiment with HS 578T breast, 0.0135 µM; with HT29 colon it was above 100 µM; in the experiment with K-562 leukemia it was 62.7 µM. Besides, the GI50 with M14 melanoma is above 100 µM; in the experiment with SK-OV-3 ovarian, above 100 µM; with SN12C renal, 7.35 µM; with SNB-75 CNS, above 100 µM. Besides, the TGI in the experiment with 786-0 renal is above 100 µM; in the experiment on COLO 205 colon, above 100 µM; with HCT-15 colon, above 100 µM; in the experiment with HS 578T breast, 0.0701 µM; in the experiment with HT29 colon it was above 100 µM; with K-562 leukemia, above 100 µM. The TGI with M14 melanoma, with SK-OV-3 ovarian, with SN12C renal and in the experiment on SNB-75 CNS was above 100 µM in each case.
For `Cc1cc(O)ccc1C1(c2ccc(O)cc2C)OC(=O)c2ccccc21`, the GI50 with 786-0 renal was 16.8 µM; in the experiment with COLO 205 colon, 16.8 µM; in the experiment with HCT-15 colon it was 16.3 µM; in the experiment with HS 578T breast, 18.9 µM; with HT29 colon, 19.9 µM; in the experiment on K-562 leukemia it was 28 µM. The GI50 was 18.3 µM with M14 melanoma, 17.7 µM in the experiment with SK-OV-3 ovarian, 19.5 µM in the experiment on SN12C renal and 15.1 µM in the experiment on SNB-75 CNS. For the same compound, the TGI in the experiment on 786-0 renal is 34 µM; in the experiment with COLO 205 colon, 32.3 µM; in the experiment on HCT-15 colon it was 30.7 µM; with HS 578T breast it was 46.3 µM; in the experiment on HT29 colon, 35.5 µM; in the experiment with K-562 leukemia it was above 100 µM. Besides, the TGI was 37.1 µM in the experiment on M14 melanoma, 32.8 µM in the experiment on SK-OV-3 ovarian, 39.9 µM in the experiment with SN12C renal and 29.5 µM in the experiment on SNB-75 CNS.
Turning to `COc1ccc(-c2cc(=O)c3c(OC)c4ccoc4c(/C=C/C=O)c3o2)cc1`, the GI50 is 16.8 µM with 786-0 renal; 27.5 µM in the experiment with COLO 205 colon; 1.73 µM in the experiment with HCT-15 colon; 10.4 µM in the experiment on HS 578T breast; 18.1 µM in the experiment on HT29 colon; 2.8 µM with K-562 leukemia. Besides, the GI50 with M14 melanoma is 2.24 µM; with SK-OV-3 ovarian, 4.73 µM; in the experiment with SN12C renal, 2.32 µM; in the experiment on SNB-75 CNS it was 3.13 µM. Moreover, the TGI in the experiment with 786-0 renal was 72.5 µM; in the experiment on COLO 205 colon it was 80.4 µM; in the experiment on HCT-15 colon, 5.92 µM; with HS 578T breast, above 100 µM; in the experiment with HT29 colon, above 100 µM; in the experiment on K-562 leukemia, above 100 µM. Besides, the TGI in the experiment with M14 melanoma was found to be 7.56 µM; in the experiment with SK-OV-3 ovarian, 23 µM; with SN12C renal, 59.5 µM; in the experiment with SNB-75 CNS it was 20.6 µM.
Take `CCOC(=O)C1=C(C)NC2SC(=O)/C(=C\c3cccc(Cl)c3)N2C1c1ccccc1` (stereo not given): the GI50 with 786-0 renal is above 100 µM; with COLO 205 colon, above 100 µM; in the experiment on HCT-15 colon, above 100 µM; in the experiment with HS 578T breast it was 90.4 µM; with HT29 colon, above 100 µM; in the experiment with K-562 leukemia, above 100 µM. In addition, the GI50 with M14 melanoma, in the experiment with SK-OV-3 ovarian, in the experiment on SN12C renal and in the experiment with SNB-75 CNS was above 100 µM in each case. The TGI with 786-0 renal, in the experiment with COLO 205 colon, with HCT-15 colon, in the experiment with HS 578T breast, with HT29 colon and in the experiment on K-562 leukemia was above 100 µM each time. Further, the TGI in the experiment with M14 melanoma, with SK-OV-3 ovarian, in the experiment with SN12C renal and in the experiment with SNB-75 CNS was above 100 µM throughout.
For the compound `Cc1nc2ccc(-n3ncc(C(=O)c4cc5ccccc5[nH]4)c3N)cc2[nH]1`, the GI50 in the experiment on 786-0 renal was 9.44 µM; in the experiment with COLO 205 colon, 4.77 µM; with HCT-15 colon, 0.884 µM; in the experiment with HS 578T breast it was 10.5 µM; with HT29 colon, 5.13 µM; in the experiment on K-562 leukemia, 3.07 µM. For the same compound, the GI50 is 12.2 µM with M14 melanoma, 14 µM in the experiment on SK-OV-3 ovarian, 12.7 µM in the experiment with SN12C renal and 0.945 µM with SNB-75 CNS. Further, the TGI with 786-0 renal was 69.4 µM; in the experiment on COLO 205 colon, 29.1 µM; with HCT-15 colon, 36.6 µM; in the experiment with HS 578T breast it was above 100 µM; in the experiment on HT29 colon it was 66.9 µM; with K-562 leukemia, above 100 µM. Also, the TGI with M14 melanoma was 63.4 µM; with SK-OV-3 ovarian, above 100 µM; in the experiment with SN12C renal, above 100 µM; with SNB-75 CNS, above 100 µM.
